Laboratory results reported in paper PMC12655351, “Synthesis and Anticancer Activity Evaluation of New 5-((5-Nitrofuran-2-yl)allylidene)-2-thioxo-4-thiazolidinones” (Pharmaceuticals, 2025).

Key:
786-0 = conditions: 786-0, 48 h
SF-295 = test: NCI-60 SRB screen; conditions: SF-295, 48 h; for GI50 / CC50: Homo sapiens; for CC50: read-out: LC50, SF-295, 48 h
HCT-15 = test: NCI-60 SRB screen; conditions: HCT-15, 48 h; for GI50 / CC50: Homo sapiens; for CC50: read-out: LC50, HCT-15, 48 h
CNS cancer [1] = test: cells; conditions: Homo sapiens; for GI50: read-out: MG_MID GI50; for CC50: read-out: MG_MID LC50
SR [2] = test: cells; conditions: Homo sapiens, 48 h; for CC50: read-out: LC50
CNS cancer [3] = conditions: CNS cancer subpanel
SR [4] = conditions: 48 h
OVCAR-4 = conditions: OVCAR-4, 48 h
A498 [5] = test: cells; conditions: Homo sapiens, A498, 48 h
Melanoma [6] = conditions: Melanoma subpanel
MDA-MB-468 = test: NCI-60 SRB screen; conditions: MDA-MB-468, 48 h; for GI50 / CC50: Homo sapiens; for CC50: read-out: LC50, MDA-MB-468, 48 h
Melanoma [7] = test: cells; conditions: Homo sapiens; for GI50: read-out: MG_MID GI50; for CC50: read-out: MG_MID LC50
OVCAR-3 = test: cells; conditions: Homo sapiens, OVCAR-3, 48 h
NCI-H460 = test: NCI-60 SRB screen; conditions: NCI-H460, 48 h; for GI50 / CC50: Homo sapiens; for CC50: read-out: LC50
MOLT-4 = conditions: MOLT-4, 48 h
NCI-H23 = conditions: NCI-H23, 48 h
SN12C [8] = conditions: SN12C, 48 h
Leukemia = test: cells; conditions: Homo sapiens; for GI50: read-out: MG_MID GI50; for CC50: read-out: MG_MID LC50
UACC-257 = conditions: UACC-257, 48 h
EKVX = test: NCI-60 SRB screen; conditions: 48 h; for GI50 / CC50: Homo sapiens; for CC50: read-out: LC50, EKVX, 48 h
HCC-2998 = conditions: HCC-2998, 48 h
UO-31 = test: cells; conditions: Homo sapiens, UO-31, 48 h; for CC50: read-out: LC50, UO-31, 48 h
PC-3 = test: cells; conditions: Homo sapiens, PC-3, 48 h
Colon cancer = test: NCI-60 SRB screen, subpanel; conditions: for MG_MID TGI: Colon cancer subpanel; for GI50 / CC50: Homo sapiens; for GI50: read-out: MG_MID GI50; for CC50: read-out: MG_MID LC50
NCI/ADR-RES = conditions: 48 h
A498 [9] = conditions: A498, 48 h
SK-OV-3 = test: cells; conditions: Homo sapiens, SK-OV-3, 48 h; for CC50: read-out: LC50, SK-OV-3, 48 h
SNB-75 = test: NCI-60 SRB screen; conditions: SNB-75, 48 h; for GI50 / CC50: Homo sapiens; for CC50: read-out: LC50, SNB-75, 48 h
SN12C [10] = test: cells; conditions: Homo sapiens, 48 h; for CC50: read-out: LC50, SN12C, 48 h
SK-MEL-28 = conditions: SK-MEL-28, 48 h
CAKI-1 = conditions: CAKI-1, 48 h
Breast cancer = test: cells; conditions: Homo sapiens; for GI50: read-out: MG_MID GI50; for CC50: read-out: MG_MID LC50

O=C(O)C(c1ccccc1)N1C(=O)/C(=C/C=C/c2ccc([N+](=O)[O-])o2)SC1=S (stereo not shown) [9b, 2-((Z)-5-((E)-3-(5-Nitrofuran-2-yl)allylidene)-4-oxo-2-thioxothiazolidin-3-yl)-2-phenylacetic acid]
TGI (786-0): 12.8 µM | GI50 (SF-295): 17.4 µM | CC50 (SF-295): 58.4 µM | TGI (SF-295): 31.9 µM | TGI (HCT-15): 22.9 µM | GI50 (HCT-15): 7.73 µM | CC50 (HCT-15): 59 µM | GI50 (CNS cancer [1]): 9.99 µM | CC50 (CNS cancer [1]): 48.4 µM | GI50 (SR [2]): 3.15 µM | CC50 (SR [2]): > 100 µM | MG_MID TGI (CNS cancer [3]): 21.7 µM | TGI (SR [4]): 18.0 µM | TGI (OVCAR-4): 28.0 µM | GI50 (A498 [5]): 20.8 µM | MG_MID TGI (Melanoma [6]): 20.0 µM | GI50 (MDA-MB-468): 2.74 µM | CC50 (MDA-MB-468): 45.6 µM | TGI (MDA-MB-468): 10.4 µM | GI50 (Melanoma [7]): 7.49 µM | CC50 (Melanoma [7]): 48.9 µM | GI50 (OVCAR-3): 9.26 µM | GI50 (NCI-H460): 11.6 µM | CC50 (NCI-H460): 73.6 µM | TGI (NCI-H460): 29.2 µM | TGI (MOLT-4): 39.9 µM | TGI (NCI-H23): 31.0 µM | TGI (SN12C [8]): 18.3 µM | GI50 (Leukemia): 6.64 µM | CC50 (Leukemia): > 100 µM | TGI (UACC-257): 27.2 µM | TGI (EKVX): 28.1 µM | GI50 (EKVX): 14.3 µM | CC50 (EKVX): 55.1 µM | TGI (HCC-2998): 29.9 µM | GI50 (UO-31): 10.8 µM | CC50 (UO-31): 50.7 µM | GI50 (PC-3): 13.5 µM | MG_MID TGI (Colon cancer): 19.4 µM | GI50 (Colon cancer): 6.75 µM | CC50 (Colon cancer): 66.2 µM | TGI (NCI/ADR-RES): 33.9 µM | TGI (A498 [9]): 36.5 µM | GI50 (SK-OV-3): 15.9 µM | CC50 (SK-OV-3): 56.3 µM | GI50 (SNB-75): 2.11 µM | CC50 (SNB-75): 27.9 µM | TGI (SNB-75): 7.39 µM | GI50 (SN12C [10]): 5.39 µM | CC50 (SN12C [10]): 45 µM | TGI (SK-MEL-28): 23.4 µM | TGI (CAKI-1): 19.7 µM | GI50 (Breast cancer): 5.89 µM | CC50 (Breast cancer): 49.4 µM

CCCC(C(=O)O)N1C(=O)/C(=C/C=C/c2ccc([N+](=O)[O-])o2)SC1=S (stereo not shown) [4b, 2-((Z)-5-((E)-3-(5-Nitrofuran-2-yl)allylidene)-4-oxo-2-thioxothiazolidin-3-yl)pentanoic acid]
TGI (786-0): 12.6 µM | GI50 (SF-295): 2.2 µM | CC50 (SF-295): 25.7 µM | TGI (SF-295): 6.76 µM | TGI (HCT-15): 3.39 µM | GI50 (HCT-15): 1.65 µM | CC50 (HCT-15): 6.97 µM | GI50 (CNS cancer [1]): 1.93 µM | CC50 (CNS cancer [1]): 11.6 µM | GI50 (SR [2]): 1.86 µM | CC50 (SR [2]): > 100 µM | MG_MID TGI (CNS cancer [3]): 4.46 µM | TGI (SR [4]): 8.87 µM | TGI (OVCAR-4): 19.1 µM | GI50 (A498 [5]): 2.24 µM | MG_MID TGI (Melanoma [6]): 3.41 µM | GI50 (MDA-MB-468): 1.57 µM | CC50 (MDA-MB-468): 5.92 µM | TGI (MDA-MB-468): 3.05 µM | GI50 (Melanoma [7]): 1.67 µM | CC50 (Melanoma [7]): 7.32 µM | GI50 (OVCAR-3): 2.18 µM | GI50 (NCI-H460): 1.7 µM | CC50 (NCI-H460): 6.23 µM | TGI (NCI-H460): 3.25 µM | TGI (MOLT-4): 14.4 µM | TGI (NCI-H23): 4.11 µM | growth GP (SN12C [8]; 10 μM): -95.04% | TGI (SN12C [8]): 4.05 µM | GI50 (Leukemia): 2.36 µM | CC50 (Leukemia): > 100 µM | TGI (UACC-257): 4.82 µM | TGI (EKVX): 7.77 µM | GI50 (EKVX): 2.53 µM | CC50 (EKVX): 27.7 µM | TGI (HCC-2998): 3.33 µM | GI50 (UO-31): 1.63 µM | CC50 (UO-31): 6.78 µM | GI50 (PC-3): 2.87 µM | MG_MID TGI (Colon cancer): 3.41 µM | GI50 (Colon cancer): 1.73 µM | CC50 (Colon cancer): 6.48 µM | TGI (NCI/ADR-RES): 4.96 µM | TGI (A498 [9]): 7.21 µM | GI50 (SK-OV-3): 5.8 µM | CC50 (SK-OV-3): 47.2 µM | GI50 (SNB-75): 1.53 µM | CC50 (SNB-75): 6.99 µM | TGI (SNB-75): 3.27 µM | GI50 (SN12C [10]): 1.76 µM | CC50 (SN12C [10]): 9.32 µM | TGI (SK-MEL-28): 3.51 µM | TGI (CAKI-1): 3.70 µM | GI50 (Breast cancer): 1.85 µM | CC50 (Breast cancer): 38.3 µM
